Data taken from patent US20220202882A1, “EFFECT OF COMBINATION OF BIFIDOBACTERIUM AND BERBERINE ON PRE-DIABETES AND TYPE 2 DIABETES” (The Fourth Military Medical University, priority 2018, published 2022).
Counter-ions that a name gives are not always drawn.

Columns and labels:
[1] = system: pre-diabetic and type 2 diabetes mellitus patients; test: Clinical trial: glycosylated hemoglobin (HbA1c); type: in vivo, human; conditions: for Effect on glycosylated hemoglobin level (in words) / Post-treatment HbA1c - pre-treatment HbA1c, mean value / Post-treatment HbA1c <7.0% with no hypoglycemia, Yes-N (%) / Post-treatment HbA1c <7.0%, Yes-N (%): 16 weeks of treatment; for Effect on glycosylated hemoglobin level (in words): Kruskal-Wilcox test; for Post-treatment HbA1c, mean value: after 16 weeks of treatment; for Pre-treatment HbA1c, mean value: baseline before treatment
Procedure: From June 2015 to October 2018, a double-blind, randomized, and parallel-controlled trial, studying the effects of the combined use of Bifidobacterium and berberine on pre-diabetic and type 2 diabetes mellitus patients, was conducted in 10 research centers in Xi'an, Yan'an and Shangluo of Shaanxi province, etc., including the First Affiliated Hospital of the Fourth Military Medical University. The trial included an enrollment stage of 2 weeks and a treatment stage of 16 weeks. After passing the first visit 1 (see V1 in Table 1), the subjects entered the enrollment stage, i.e., 2 weeks of lifestyle intervention, followed by a re-screening (see V2 in Table 1). The subjects were subjected to a 16-week course of treatment after passing the screening. See Table 1 for the detailed screening parameters. After the enrollment stage, the baseline data of the 300 successfully enrolled subjects were collected. Meanwhile, the subjects started to receive lifestyle guidance, and were randomly divided into four groups for 16 weeks of treatments. 1) Bifidobacterium group: the subjects were administered with Bifidobacterium capsules (Livzon Pharmaceutical Group Inc., batch no.: 20141013), 0.35 g/capsule, each capsule containing 50,000,000 viable bacteria (Bifidobacterium adolescentis DM8504), 2 capsules/time, 2 times/day, plus berberine placebo tablets (Northeast Pharma Group Shenyang First Pharma Co., Ltd., Lot no.: 20150101, containing 80.2% microcrystalline cellulose, 9.4% pregelatinized starch, 6.4% sodium carboxymethyl starch, 1% magnesium stearate, and 3% copovidone), 0.1 g/tablet, 5 tablets/time, 2 times/day. 2) Berberine group: the subjects were administered with berberine tablets (Northeast Pharma Group Shenyang First Pharma Co., Ltd., Lot no.: 130917, each tablet weighted 0.165 g and contained 0.1 g active berberine ingredient (berberine hydrochloride), with the same excipients as the placebo tablets), 5 tablets/time, 2 times/day, plus Bifidobacterium placebo capsules (Livzon Pharmaceutical Group Inc., Lot no.: 141001, specifically containing 0.348 g spray-dried lactose, and 0.002 g magnesium stearate), 0.35 g/capsule, 2 capsules/time, 2 times/day. 3) Combination Group: the subjects were administered with Bifidobacterium capsules, 0.35 g/capsule, each capsule containing 50,000,000 viable bacteria (B. adolescentis DM8504), 2 capsules/time, 2 times/day, plus berberine tablets, 0.1 g/tablet, each tablet containing 0.1 g active berberine ingredient (berberine hydrochloride), 5 tablets/time, 2 times/day. 4) Control group: the subjects were administered with Bifidobacteria placebo capsules, 0.35 g/capsule, 2 capsules/time, 2 times/day, plus berberine placebo tablets, 0.1 g/tablet, 5 tablets/time, 2 times/day. Bifidobacterium capsules were taken after meals and berberine tablets were taken before meals. Before blood collection, the subjects were kept still for 5 min. For serum insulin assays, 5 ml of whole blood was collected at fasting, and 30 min and 2 h post glucose intake, and then subjected to centrifugation […]. The obtained serum was collected in the cryogenic vials. For the glycosylated hemoglobin (HbA1c) test, 2 ml of whole blood was collected and placed in EDTA-containing tubes. For the GLP-1 and glucagon measurements, 5 ml of whole blood was collected in vacutainers containing EDTA and aprotinin at fasting, and 30 min and 2 h post meals, subjected to centrifugation, and the obtained serum was collected in cryogenic vials and stored at −20° C. Soybean-sized stool sample was placed in a dry and sterile collection tube, and sent to the detection center within 24 h for cryopreservation. […]

[2] = system: pre-diabetic and type 2 diabetes mellitus patients; test: Clinical trial: venous plasma glucose at 2 hours post OGTT (2-h PPG); type: in vivo, human; conditions: for Effect on 2 h-PPG (in words) / Post-treatment 2-h PPG - pre-treatment 2-h PPG, mean value / Post-treatment 2-h PPG <10.0 mmol/L, Yes-N (%): 16 weeks of treatment; for Effect on 2 h-PPG (in words): Kruskal-Wilcox test; for Post-treatment 2-h PPG, mean value: after 16 weeks of treatment; for Pre-treatment 2-h PPG, mean value: baseline before treatment
Procedure: From June 2015 to October 2018, a double-blind, randomized, and parallel-controlled trial, studying the effects of the combined use of Bifidobacterium and berberine on pre-diabetic and type 2 diabetes mellitus patients, was conducted in 10 research centers in Xi'an, Yan'an and Shangluo of Shaanxi province, etc., including the First Affiliated Hospital of the Fourth Military Medical University. The trial included an enrollment stage of 2 weeks and a treatment stage of 16 weeks. After passing the first visit 1 (see V1 in Table 1), the subjects entered the enrollment stage, i.e., 2 weeks of lifestyle intervention, followed by a re-screening (see V2 in Table 1). The subjects were subjected to a 16-week course of treatment after passing the screening. See Table 1 for the detailed screening parameters. After the enrollment stage, the baseline data of the 300 successfully enrolled subjects were collected. Meanwhile, the subjects started to receive lifestyle guidance, and were randomly divided into four groups for 16 weeks of treatments. 1) Bifidobacterium group: the subjects were administered with Bifidobacterium capsules (Livzon Pharmaceutical Group Inc., batch no.: 20141013), 0.35 g/capsule, each capsule containing 50,000,000 viable bacteria (Bifidobacterium adolescentis DM8504), 2 capsules/time, 2 times/day, plus berberine placebo tablets (Northeast Pharma Group Shenyang First Pharma Co., Ltd., Lot no.: 20150101, containing 80.2% microcrystalline cellulose, 9.4% pregelatinized starch, 6.4% sodium carboxymethyl starch, 1% magnesium stearate, and 3% copovidone), 0.1 g/tablet, 5 tablets/time, 2 times/day. 2) Berberine group: the subjects were administered with berberine tablets (Northeast Pharma Group Shenyang First Pharma Co., Ltd., Lot no.: 130917, each tablet weighted 0.165 g and contained 0.1 g active berberine ingredient (berberine hydrochloride), with the same excipients as the placebo tablets), 5 tablets/time, 2 times/day, plus Bifidobacterium placebo capsules (Livzon Pharmaceutical Group Inc., Lot no.: 141001, specifically containing 0.348 g spray-dried lactose, and 0.002 g magnesium stearate), 0.35 g/capsule, 2 capsules/time, 2 times/day. 3) Combination Group: the subjects were administered with Bifidobacterium capsules, 0.35 g/capsule, each capsule containing 50,000,000 viable bacteria (B. adolescentis DM8504), 2 capsules/time, 2 times/day, plus berberine tablets, 0.1 g/tablet, each tablet containing 0.1 g active berberine ingredient (berberine hydrochloride), 5 tablets/time, 2 times/day. 4) Control group: the subjects were administered with Bifidobacteria placebo capsules, 0.35 g/capsule, 2 capsules/time, 2 times/day, plus berberine placebo tablets, 0.1 g/tablet, 5 tablets/time, 2 times/day. Bifidobacterium capsules were taken after meals and berberine tablets were taken before meals. Before the oral glucose tolerance test (OGTT), the subjects took regular diets for at least 3 days, with carbohydrates no less than 150 g. After 10-12 h fasting, initial blood samples were collected after the subjects emptied their bladders. Then the subjects drank a sugar solution made by dissolving 75 g anhydrous glucoses in 300 ml water over about 5 min, and were collected for blood samples after 30 min and 2 h. […]

Compound | Effect on glycosylated hemoglobin level (in words) [1] | Post-treatment HbA1c - pre-treatment HbA1c, mean value ([1]; FAS) [%] | Post-treatment HbA1c <7.0% with no hypoglycemia, Yes-N (%) ([1]; FAS) | Post-treatment HbA1c <7.0%, Yes-N (%) ([1]; FAS) | Post-treatment HbA1c, mean value ([1]; FAS) [%] | Pre-treatment HbA1c, mean value ([1]; FAS) [%] | Post-treatment HbA1c <7.0% with no hypoglycemia, Yes-N (%) ([1]; PPS) | Post-treatment HbA1c <7.0%, Yes-N (%) ([1]; PPS) | Effect on 2 h-PPG (in words) [2] | Post-treatment 2-h PPG - pre-treatment 2-h PPG, mean value ([2]; FAS) [mmol/L] | Post-treatment 2-h PPG <10.0 mmol/L, Yes-N (%) ([2]; FAS) | Post-treatment 2-h PPG, mean value ([2]; FAS) [mmol/L] | Pre-treatment 2-h PPG, mean value ([2]; FAS) [mmol/L] | Post-treatment 2-h PPG <10.0 mmol/L, Yes-N (%) ([2]; PPS)
Bifidobacterium | no glycosylated hemoglobin lowing effect | −0.0545 | 76(76.00) N (%) | 88(88.00) N (%) | 6.1500 | 6.1900 | 61(73.49) N (%) | 71(85.54) N (%) | no such effect | -0.246 | 45(45.00) N (%) | 11.3 | 11.4 | 31(37.35) N (%)
COc1ccc2cc3[n+](cc2c1OC)CCc1cc2c(cc1-3)OCO2 [Berberine, berberine hydrochloride] | not significantly different from that of the combined use of berberine and Bifidobacterium | −0.1170 | 40(81.63) N (%) | 48(97.96) N (%) | 6.0800 | 6.1900 | 28(75.68) N (%) | 36(97.30) N (%) | good effect too | -1.1 | 35(71.43) N (%) | 9.84 | 11.2 | 24(64.86) N (%)
